Test results as given in article PMC7217877, “N-AS-triggered SPMs are direct regulators of microglia in a model of Alzheimer’s disease” (Nature Communications, 2020).
Values joined by “and” are separate entries in the source; they are usually repeats but may differ in a detail not shown here. Identical values can stand only once.

Test system: microglia
Assay: western blotting for ac-S565 and total COX2 in primary cells
Assay type: cell-based, C57BL/6 mice
Set-up: ac-S565, western blotting (Fig 3h): scale not given here
Details: replicates
Method: To confirm the generation and roles of N-AS in neurons, cells from E18 C57BL/6 mice were prepared as previously described. Cortices were dissected and then dissociated followed by incubation in papain (Worthington) at 37 °C for 15 min. Neurons were plated on poly-L-lysine-coated coverslips with neuronal culture medium, serum-free Neurobasal medium (Gibco) containing 2% B27 supplements (Gibco), 1 mM Glutamax supplement (Gibco), and 100 U ml^−1 streptomycin/ 100 U ml^−1 penicillin (Gibco) at 37 °C in a humidified atmosphere of 5% CO2. Aβ 1–42 (10 μM, 24 h, Invitrogen, 03112) was exposed to neurons and the cells were analyzed for the generation and roles of N-AS. Primary astrocyte cultures were prepared from C57BL/6 mice as described previously. In brief, after removal of the meninges, postnatal day 7 (P7) mouse brain tissues were minced and incubated in a rocking water bath at 37 °C for 30 min in the presence of 0.25% trypsin-EDTA (Sigma-Aldrich). Enzyme-digested dissociated cells were triturated with astrocyte-specific medium (DMEM/F12 containing 10% FBS and 1% penicillin-streptomycin) and centrifuged at 155×g for 8 min. The pellet was resuspended in astrocyte-specific medium and passed through a 40-μm cell strainer. The filtrate was allowed pre-adherence for 30 min to remove any contamination from fibroblasts before being seeded in dishes and the addition of astrocyte-specific medium. To split the cells, Ara-C was added to the dishes and they were then placed in a heated shaker for 6–7 h. The medium was removed from the dishes, and trypsin-EDTA was added to the dish and incubated at 37 °C for 5–10 min. After centrifugation at 155×g for 8 min, the supernatant was removed, and the astrocytes were maintained in culture by feeding […] with astrocyte-specific medium. Primary microglia cultures were prepared from C57BL/6 mice as described previously. In brief, the cortices of 2-months-old mice were minced in Hibernate A (Gibco)/B27 supplements (Gibco) medium and dissociated using papain (Worthington) solution. After tissue trituration, cells were separated by Optiprep (Sigma-Aldrich) density gradient centrifugation. Microglia were plated with microglia-specific medium (DMEM/F12 containing 10% FBS and 1% penicillin-streptomycin). The immortalized human microglia (Applied Biologics Materials, T0251) were cultured in PriGrow III (Applied Biologics Materials, TM003) (supplemented with 10% FBS and 1% penicillin-streptomycin) at 37 °C in a humidified atmosphere of 5% CO2. In order to assess the clinical importance of N-AS in AD microglia, Aβ 1–42 (50 μM, 24 h, Invitrogen, 03112) was exposed to human microglia before treated with zileuton (50 μM, 24 h, Sigma-Aldrich, Z4277). The human microglia treated with Aβ 1–42 and/or zileuton was incubated with N-AS (2.5 μM, 2 h, Sigma-Aldrich, 01912), and were analyzed for the generation and roles of N-AS.
Samples were lysed in RIPA buffer (Cell signaling Technologies), then subjected to SDS-PAGE and transferred to a nitrocellulose membrane. Membranes were blocked with 5% milk, incubated with primary antibody and then incubated with the appropriate horseradish peroxidase-conjugated secondary antibody. […] We performed densitometric quantification using the ImageJ software (National Institutes of Health). Images have been cropped for presentation.

Molecule	ac-S565, western blotting (Fig 3h) (Ab 10mM + supplement)	ac-S565, western blotting (Fig 3h) (Ab 10mM, no supplement)	ac-S565 / total COX2, western blotting (Fig 3b) (Ab 10mM)
CC(=O)SCCNC(=O)CCNC(=O)[C@H](O)C(C)(C)COP(=O)(O)OP(=O)(O)OC[C@H]1O[C@@H](n2cnc3c(N)ncnc32)[C@H](O)[C@@H]1OP(=O)(O)O [Acetyl-CoA, acetyl-CoA]	1.293 and 1.204 and 1.322 and 1.2834	–	–
CCCCCCCCCCCCC/C=C/[C@@H](O)[C@H](CO)NC(C)=O [N-AS, N-((2S,3R,E)-1,3-Dihydroxyoctadec-4-en-2-yl)acetamide]	1.339 and 1.447 and 1.994 and 1.362	–	–
CCCCCCCCCCCCC/C=C/[C@@H](O)[C@@H](N)CO [Sph, sphingosine]	0.2446 and 0.241 and 0.1599 and 0.2328	–	–
Ab: Aβ 1–42 (Invitrogen, 03112) used to induce an AD environment in cells	–	0.2316 and 0.2169 and 0.2234 and 0.1511	0.3907 and 0.4255 and 0.3575 and 0.3077 and 0.4081 and 0.3915
Sphk1: purified sphingosine kinase1 enzyme (Cayman, 10348) supplemented to cell lysates (protein, UniProt Q9NYA1 1-384, looked up) Sphingosine kinase 1: MDPAGGPRGVLPRPCRVLVLLNPRGGKGKALQLFRSHVQPLLAEAEISFTLMLTERRNHARELVRSEELGRWDALVVMSGDGLMHEVVNGLMERPDWETAIQKPLCSLPAGSGNALAASLNHYAGYEQVTNEDLLTNCTLLLCRRLLSPMNLLSLHTASGLRLFSVLSLAWGFIADVDLESEKYRRLGEMRFTLGTFLRLAALRTYRGRLAYLPVGRVGSKTPASPVVVQQGPVDAHLVPLEEPVPSHWTVVPDEDFVLVLALLHSHLGSEMFAAPMGRCAAGVMHLFYVRAGVSRAMLLRLFLAMEKGRHMEYECPYLVYVPVVAFRLEPKDGKGVFAVDGELMVSEAVQGQVHPNYFWMVSGCVEPPPSWKPQQMPPPEEPL	0.2731 and 0.2264 and 0.2811 and 0.241	–	–
